Data on 3 compounds can be found in US7132590B2, “Methods of making male-sterile plants by underexpressing allene oxide synthase” (The Arizona Board of Regents on Behalf of the University of …, priority 2001, dated 2006).

For assay [1], the system named is Arabidopsis aos mutant. The format is in vivo, Arabidopsis thaliana. To be noted: for time after application at which aos mutant siliques started to elongate / time for aos mutant siliques to reach the wild-type silique size: after OPDA and MeJA spraying; for rescue of male sterile phenotype (silique elongation, fertility) of aos mutant: flower buds of 4 week old plants, twice a day for two days, 1% LA or 2 mM MeJA sprayed, 1 mM OPDA dipped, siliques monitored two weeks. As to the method:
Application of linolenic acid (LA; Cayman Chemical, USA) and methyl jasmonate (MeJA; Sigma-Aldrich, USA) to recover male sterility of Arabidopsis aos mutant was done by spraying 1% of LA and 2 mM MeJA directly on Arabidopsis flower buds of 4 week old plants grown under long day condition. Oxo-phytodienoic acid (OPDA; Cayman Chemical, USA) was applied by dipping of floral buds in the 1 mM OPDA and 0.01% TritonX-100 (Sigma-Aldrich, USA) solution. These plants were sprayed twice a day for two days. The plants were monitored for silique production over the next two weeks.
The AOS gene is important in jasmonate biosynthesis because it catalyzes the most upstream step in the JA-specific biosynthetic pathway (FIG. 1).

Assay [2] deals with triple mutant (fad3-2/fad7-2/fad8). To be noted: mutant lacking hexadecatrienoic acid (16:3) and LA (18:3); McConn and Browse (1996); cited from earlier work.
In assay [3] the test system is male-sterile mutant (dad1). The following applies: Ishiguro et al. (2001); cited from earlier work.

Entries after “also recorded” stand apart in the source; their conditions may differ.

With `CC/C=C\CC1C(=O)CCC1CC(=O)OC` (stereo not drawn) [MeJA, methyl jasmonate], in assay [1], the “time after application at which aos mutant siliques started to elongate” value is given as “Two”; the “time for aos mutant siliques to reach the wild-type silique size” value is given as “in a week”; the “rescue of male sterile phenotype (silique elongation, fertility) of aos mutant” value (shortened to “rescue of male sterile phenotype”) is listed as “rescued to wild-type; also recorded: can rescue the aos male sterile phenotype”.

Take `CC/C=C\C[C@@H]1C(=O)C=C[C@@H]1CCCCCCCC(=O)O` [OPDA, Oxo-phytodienoic acid]: in assay [1], the “time after application at which aos mutant siliques started to elongate” value was “Two”; the “time for aos mutant siliques to reach the wild-type silique size” value was “in a week”; the “rescue of male sterile phenotype” value was “rescued to wild-type”.

On to `CC/C=C\C[C@H]1C(=O)CC[C@@H]1CC(=O)O` [jasmonic acid, Jasmonic acid], for which the “rescue of male sterile phenotype” value in assay [1] was “restoration of essentially wild-type siliques and recovered fertility”. Moreover, the “rescue of male sterility” value in assay [2] was “could be rescued”. Further, in assay [3], the “rescue of sterility phenotype” value is recorded as “could be rescued”.
